In PubChem BioAssay (NCI):
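Assay format: 96-well plates, 48-hour exposure. At the TGI there is no net growth.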

Legend:
Assay in all cases: NCI tumour cell line growth inhibition, 48 h
A549 NSCLC = tested on: A549 NSCLC
CCRF-CEM leukemia = tested on: CCRF-CEM leukemia
HOP-62 NSCLC = tested on: HOP-62 NSCLC
IGROV1 ovarian = tested on: IGROV1 ovarian
K-562 leukemia = tested on: K-562 leukemia
KM12 colon = tested on: KM12 colon
LOX IMVI melanoma = tested on: LOX IMVI melanoma
MALME-3M melanoma = tested on: MALME-3M melanoma
OVCAR-3 ovarian = tested on: OVCAR-3 ovarian
OVCAR-4 ovarian = tested on: OVCAR-4 ovarian
RXF 393 renal = tested on: RXF 393 renal
SF-268 CNS = tested on: SF-268 CNS
SK-MEL-28 melanoma = tested on: SK-MEL-28 melanoma
SN12C renal = tested on: SN12C renal
SW-620 colon = tested on: SW-620 colon
TK-10 renal = tested on: TK-10 renal
UACC-257 melanoma = tested on: UACC-257 melanoma
UACC-62 melanoma = tested on: UACC-62 melanoma
UO-31 renal = tested on: UO-31 renal
CAKI-1 renal = tested on: CAKI-1 renal

Row | SMILES | TGI (A549 NSCLC) [µM] | TGI (CCRF-CEM leukemia) [µM] | TGI (HOP-62 NSCLC) [µM] | TGI (IGROV1 ovarian) [µM] | TGI (K-562 leukemia) [µM] | TGI (KM12 colon) [µM] | TGI (LOX IMVI melanoma) [µM] | TGI (MALME-3M melanoma) [µM] | TGI (OVCAR-3 ovarian) [µM] | TGI (OVCAR-4 ovarian) [µM] | TGI (RXF 393 renal) [µM] | TGI (SF-268 CNS) [µM] | TGI (SK-MEL-28 melanoma) [µM] | TGI (SN12C renal) [µM] | TGI (SW-620 colon) [µM] | TGI (TK-10 renal) [µM] | TGI (UACC-257 melanoma) [µM] | TGI (UACC-62 melanoma) [µM] | TGI (UO-31 renal) [µM] | TGI (CAKI-1 renal) [µM]
1 | Nc1ccccc1Sc1ccc(Cl)cc1 | > 100 | 46.6 | > 100 | > 100 | 94.4 | > 100 | > 100 | > 100 | 72.1 | > 100 | 32.1 | > 100 | 64 | 56.1 | > 100 | > 100 | 54.1 | > 100 | 51 | 
2 | COc1cccc(NC(=O)N/C(=C/c2ccc(N(CCC#N)CCC#N)cc2)NC(=O)c2cc([N+](=O)[O-])ccc2Cl)c1 | > 100 | > 100 | > 100 | > 100 | > 100 | > 100 | > 100 |  | > 100 | > 100 | > 100 | > 100 | > 100 | > 100 |  | > 100 |  | > 100 | > 100 | > 100
3 | Cc1cc(S(N)(=O)=O)c(S/C(=N\Nc2ccc([N+](=O)[O-])cc2)c2ccc(Cl)cc2)cc1Cl | 7.48 | > 100 | > 100 | 12.8 | > 100 | 4.15 |  | 4.31 | 3.85 | 4.48 | 3.49 | 6.58 | 4.91 | 10.9 | > 100 | 3.54 | 8.7 | 20.2 | 22 | 14.9
4 | C/C(=C1/N=C(c2cc([N+](=O)[O-])ccc2Cl)N(C2=CC=C(Cl)CC2)C1=O)c1cc2ccccc2oc1=O | > 100 | > 100 | > 100 | > 100 | > 100 | > 100 | > 100 | > 100 | > 100 | > 100 |  | > 100 | > 100 | > 100 | > 100 |  | > 100 | > 100 | > 100 | > 100
5 | C=CCN1C(=O)/C(=C/c2cccs2)N=C1SC1OC(COC(=O)c2ccccc2)C(OC(=O)c2ccccc2)C1OC(=O)c1ccccc1 (centres undefined) |  | 80.9 | > 100 | > 100 | > 100 | > 100 | > 100 | > 100 | > 100 | > 100 | > 100 |  | > 100 |  | > 100 | > 100 | > 100 | > 100 |  | > 100
6 | C=C1C(C[C@@H]2O[C@H]3C[C@H]4O[C@@]5(C[C@@H]6O[C@]7(C[C@H](C)[C@@H]8O[C@@H]9CC(C(O)CO)O[C@@H]9C[C@@H]8O7)C[C@H](C)[C@@H]6O5)C[C@H]4O[C@H]3[C@H](C)[C@H]2O)O[C@@H](CC[C@@H]2O[C@@H](CC[C@@]34CC5O[C@H]6C(O[C@H]7CC[C@H](CC(=O)OC)O[C@@H]7[C@@H]6O3)[C@H]5O4)CC2=C)C[C@H]1C (some centres undefined) | > 0.783 | > 1 | > 1 | 0.579 | > 1 |  | > 0.292 |  | > 1 | > 1 | > 1 | > 1 | > 1 | > 1 | > 1 | > 1 | > 1 | > 1 | > 1 | > 1
7 | O=C(COC(=O)c1ccccc1)c1ccc(Br)cc1 | 40.5 | 25.9 | 43.8 | 3.59 | > 100 | 37 | 11.2 | 29.4 | > 100 |  | 11.6 | 34.4 | 32.1 | 29.4 | 21.8 | 10.8 | 28.8 | 26.1 | 6.08 | 6.44
8 | O=S(=O)(O)c1ccc(N=Nc2ccc(N=Nc3ccc(/C=C/c4ccc(N=[N+]([O-])c5ccc(/C=C/c6ccc(N=Nc7ccc(N=Nc8ccc(S(=O)(=O)O)cc8)c8ccccc78)cc6S(=O)(=O)O)c(S(=O)(=O)O)c5)cc4S(=O)(=O)O)c(S(=O)(=O)O)c3)c3ccccc23)cc1 | > 100 | > 100 | > 100 | > 100 | > 100 | > 100 | > 100 | > 100 | > 100 | > 100 | > 100 | > 100 | > 100 | > 100 | > 100 |  | > 100 | > 100 | > 100 | 
